According to patent US20230218774A1, “DRUG ANTIBODY CONJUGATES” (PHARMA MAR, S.A., priority 2019, published 2023):
“And” between values parts separate entries of the source, which are not always exact repeats. Equal values may be shown once.

Key:
Format in all cases: cell-based
[1] = tested on: MCF-7 (breast cancer, HER2−); experiment: SRB colorimetric cytotoxicity assay, MCF-7; conditions: Homo sapiens, MCF7, 72 h
Description: (§1) The aim of the assay was to evaluate the in vitro cytostatic (ability to delay or arrest tumor cell growth) or cytotoxic (ability to kill tumor cells) activity of the samples being tested.
(§2) The following human tumor cell lines were obtained from the American Type Culture Collection (ATCC): SK-BR-3 (ATCC HB-30), HCC-1954 (ATCC CRL-2338) (both being breast cancer, HER2+), MDA-MB-231 (ATCC HTB-26), MCF-7 (ATCC HTB-22) (both being breast cancer, HER2−).
(§3) For SK-BR-3, HCC-1954, MDA-MB-231 and MCF-7 cells, a colorimetric assay using Sulforhodamine B (SRB) was adapted for quantitative measurement of cell growth and cytotoxicity, as described by V. Vichai and K. Kirtikara. In “Sulforhodamine B colorimetric assay for cytotoxicity screening”, Nature Protocols, 2006, 1: 1112-1116. Briefly, cells were seeded in 96-well microtiter plates and allowed to stand for 24 hours in drug-free medium before treatment with vehicle alone or with the tested substances for 72 hours. For quantification, cells were washed twice with phosphate buffered saline (PBS), fixed for 15 min in 1% glutaraldehyde solution, rinsed twice with PBS, stained in 0.4% (w/v) SRB with 1% (v/v) acetic acid solution for 30 min, rinsed several times with 1% acetic acid solution and air-dried.
(§4) Cell survival was expressed in all cases as percentage of control, untreated cell survival. […]

[2] = tested on: HCC-1954 (breast cancer, HER2+); experiment: SRB colorimetric cytotoxicity assay, HCC-1954; conditions: Homo sapiens, HCC1954, 72 h
Description: as §1, §2, §3, §4

[3] = tested on: MDA-MB-231 (breast cancer, HER2−); experiment: SRB colorimetric cytotoxicity assay, MDA-MB-231; conditions: Homo sapiens, MDA-MB-231, 72 h
Description: as §1, §2, §3, §4

[4] = tested on: SK-BR-3 (breast cancer, HER2+); experiment: SRB colorimetric cytotoxicity assay, SK-BR-3; conditions: Homo sapiens, SK-BR-3, 72 h
Description: as §1, §2, §3, §4

**Q.** For `C=C1C[C@](OC)([C@H](O)C(=O)N[C@@H](OC)[C@@H]2C[C@@H](O)C(C)(C)[C@@H](C[C@@H](COC(=O)NCCCNC(=O)CCCCCN3C(=O)C=CC3=O)OC)O2)O[C@H](C)[C@@H]1C` (racemic) [DL-2], which IC50 [1] is on record?
**A.** The IC50 was 0.0759 µg/mL and 97 nM.

**Q.** And the IC50 [2]?
**A.** Its IC50 is 0.076 µg/mL and 97.1 nM.

**Q.** What about the IC50 [3] of the same molecule?
**A.** The IC50 was 0.0652 µg/mL and 83.3 nM.

**Q.** What about the IC50 [4] of the same molecule?
**A.** The IC50 was 0.108 µg/mL and 138 nM.
